# How the values were obtained:
# Assay in all cases: relative viability (nuclei count vs DMSO), 5 days (fraction); higher = more cells survive
# [1] = compound: C[C@@]1(C(=O)Nc2ccc(F)nc2)CCCN1c1nc(Nc2cc(C3CC3)n[nH]2)c2cccn2n1 + CC(=O)Nc1cccc(-n2c(=O)n(C3CC3)c(=O)c3c(Nc4ccc(I)cc4F)n(C)c(=O)c(C)c32)c1 [Trametinib] (partner 0.02 µM)
# Procedure, shortened: (§1)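 A single step with final 0.05% Triton X-100, 1% formaldehyde and 1 ug/ml Hoechst fixed the cells and stained nuclei 5 days after treatment. Lung cancer cell lines in 1536-well plates had been treated by pin tool the day after seeding with one drug alone or a fixed anchor-drug dose plus five library-drug doses (not always all listed) in √10 steps, and nuclei were counted on 4× images. Relative viability is the ratio of nuclei in treated wells to nuclei in vehicle wells, taken as the median of duplicate plates.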
# Motesanib + Olaparib = compound: CC1(C)CNc2cc(NC(=O)c3cccnc3NCc3ccncc3)ccc21 [Motesanib] + O=C(c1cc(Cc2n[nH]c(=O)c3ccccc23)ccc1F)N1CCN(C(=O)C2CC2)CC1 [Olaparib] (partner 8 µM)
# Procedure, shortened: as §1
# [2] = compound: C[C@@]1(C(=O)Nc2ccc(F)nc2)CCCN1c1nc(Nc2cc(C3CC3)n[nH]2)c2cccn2n1 + COc1cccc2cc(-c3nc([C@H]4CC[C@H](C(=O)O)CC4)n4ncnc(N)c34)[nH]c12 [OSI-027] (partner 0.5 µM)
# Procedure, shortened: as §1
# [3] = compound: C[C@@]1(C(=O)Nc2ccc(F)nc2)CCCN1c1nc(Nc2cc(C3CC3)n[nH]2)c2cccn2n1 + C[C@@H](Oc1cc(-c2cnn(C3CCNCC3)c2)cnc1N)c1c(Cl)ccc(F)c1Cl [Crizotinib] (partner 1 µM)
# Procedure, shortened: as §1
Cell Line,relative viability ([1]; first compound 0.04 µM),relative viability ([1]; first compound 0.1265 µM),relative viability ([1]; first compound 0.4 µM),relative viability ([1]; first compound 1.265 µM),relative viability (Motesanib + Olaparib; first compound 0.01 µM),relative viability (Motesanib + Olaparib; first compound 0.03162 µM),relative viability (Motesanib + Olaparib; first compound 0.1 µM),relative viability (Motesanib + Olaparib; first compound 0.3162 µM),relative viability (Motesanib + Olaparib; first compound 1 µM),relative viability ([2]; first compound 0.04 µM),relative viability ([2]; first compound 0.1265 µM),relative viability ([2]; first compound 0.4 µM),relative viability ([2]; first compound 1.265 µM),relative viability ([3]; first compound 0.04 µM),relative viability ([3]; first compound 0.1265 µM),relative viability ([3]; first compound 0.4 µM),relative viability ([3]; first compound 1.265 µM)
A-427,0.644,0.548,0.537,0.579,0.78,0.7,0.672,0.732,0.777,0.442,0.275,0.366,0.261,0.853,0.848,0.674,0.882
NCI-H441,0.23,0.164,0.21,0.211,0.542,0.452,0.436,0.627,0.496,0.405,0.322,0.313,0.328,0.603,0.704,0.553,0.527
NCI-H1792,0.343,0.188,0.145,0.211,0.544,0.444,0.491,0.444,0.486,0.303,0.828,0.199,0.212,0.896,0.677,0.62,0.473
SK-LU-1,0.45,0.413,0.421,0.469,0.445,0.504,0.425,0.505,0.373,0.252,0.176,0.198,0.219,0.824,0.875,0.715,0.467
PC-3 [JPC-3],0.628,0.441,0.513,0.603,1.14,1.18,1.2,1.18,1.16,0.688,0.59,0.485,0.621,1.03,0.921,0.905,1.01
EMC-BAC-2,0.801,0.533,0.443,0.558,0.482,0.516,0.494,0.471,0.474,0.299,0.274,0.241,0.251,0.675,0.697,0.66,0.816
LK-2,0.426,1.15,0.416,0.495,0.644,0.94,0.608,0.817,0.756,–,0.163,0.153,0.178,0.208,0.335,0.224,0.159
NCI-H2126,0.447,0.346,0.336,0.415,0.892,0.885,0.899,0.892,1,0.469,0.311,0.256,0.344,0.923,0.845,0.672,0.98
NCI-H3122,0.181,0.202,0.181,0.2,0.581,0.644,0.644,0.632,0.683,0.499,0.86,0.275,0.412,0.212,0.2,0.182,0.222
NCI-H1975,0.272,0.273,0.313,0.234,0.756,0.667,0.761,0.682,0.781,0.663,0.498,0.423,0.527,0.962,0.929,0.899,0.486
NCI-H1944,0.352,0.363,0.284,0.384,0.444,0.4,0.432,0.46,0.428,0.306,0.256,0.225,0.235,0.981,1.03,0.875,1.17
LU99A,0.411,0.352,0.399,0.504,0.284,0.268,0.271,0.255,0.263,0.251,0.233,0.223,0.186,0.391,0.415,0.39,0.233
SW 1573,0.496,0.389,0.368,0.412,0.504,0.485,0.42,0.588,0.504,0.548,0.24,0.283,0.302,0.665,0.63,0.509,0.531
NCI-H2347,0.251,0.289,0.256,0.248,0.536,0.507,0.559,0.537,0.596,0.33,0.287,0.244,0.342,0.706,0.75,0.629,0.569
NCI-H2009,0.297,0.314,0.235,0.243,0.717,0.667,0.693,0.646,0.682,0.634,0.371,0.403,0.42,1.06,1.01,0.966,0.541
HCC-15,0.237,0.204,0.19,0.264,0.632,0.74,0.739,0.702,0.724,0.417,0.189,0.305,0.365,0.749,0.63,0.66,0.714
HCC-44,0.879,0.871,0.717,1.02,0.944,0.926,1.07,1.09,0.95,0.447,0.213,0.298,0.191,0.732,0.696,0.513,0.597
COR-L23,0.59,0.542,0.441,0.269,0.366,0.389,0.275,0.363,0.36,0.656,0.53,0.518,0.461,0.737,0.653,0.494,0.333
HCC-78,0.637,1.19,0.334,0.327,0.938,0.789,0.655,–,0.834,0.377,0.308,0.298,0.323,0.31,0.212,0.216,0.307

Cell Line,relative viability ([1]; first compound 0.04 µM),relative viability ([1]; first compound 0.1265 µM),relative viability ([1]; first compound 0.4 µM),relative viability ([1]; first compound 1.265 µM),relative viability (Motesanib + Olaparib; first compound 0.01 µM),relative viability (Motesanib + Olaparib; first compound 0.03162 µM),relative viability (Motesanib + Olaparib; first compound 0.1 µM),relative viability (Motesanib + Olaparib; first compound 0.3162 µM),relative viability (Motesanib + Olaparib; first compound 1 µM),relative viability ([2]; first compound 0.04 µM),relative viability ([2]; first compound 0.1265 µM),relative viability ([2]; first compound 0.4 µM),relative viability ([2]; first compound 1.265 µM),relative viability ([3]; first compound 0.04 µM),relative viability ([3]; first compound 0.1265 µM),relative viability ([3]; first compound 0.4 µM),relative viability ([3]; first compound 1.265 µM)
NCI-H727,0.312,0.283,0.267,0.221,0.937,0.614,0.761,0.779,0.6,0.373,0.273,0.383,0.351,0.687,0.436,0.259,0.211
NCI-H2087,0.158,0.161,0.15,0.138,–,–,0.663,0.703,0.747,0.366,0.254,0.267,0.338,0.88,1.06,0.699,0.613
BEN,1.07,1.01,1.04,0.979,1.02,1.04,0.938,1.18,1.43,0.263,0.18,0.236,0.271,0.773,1.19,0.59,0.999
LCLC-103H,0.668,0.613,0.62,0.69,0.777,0.737,0.758,0.807,0.742,0.434,0.295,0.268,0.274,1.07,1.01,0.904,1.04
EKVX,0.433,0.227,0.355,0.288,0.74,0.809,0.776,0.904,0.944,0.574,0.399,0.391,0.373,0.929,0.862,0.612,0.679
LXF-289,0.67,0.619,0.645,0.717,1.04,0.992,0.926,1.21,1.12,0.633,0.463,0.407,0.353,0.837,0.806,0.751,0.714
NCI-H650,0.867,0.572,0.743,0.611,0.446,0.382,0.42,0.39,0.426,0.459,0.214,0.306,0.289,0.764,0.449,0.489,0.47
NCI-H1650,0.672,0.5,0.51,0.572,0.746,0.875,0.914,0.632,0.843,0.546,0.49,0.442,0.374,0.966,0.813,0.9,0.366
NCI-H2085,0.929,0.471,0.58,0.636,0.756,0.777,0.764,0.745,0.843,0.788,0.679,0.599,0.535,0.913,0.979,0.844,0.635
LC-2-ad,0.848,0.749,0.648,0.735,0.689,0.709,0.816,0.733,0.785,0.601,0.458,0.405,0.392,0.448,0.387,0.349,0.304
COR-L 105,0.44,0.42,0.439,0.399,0.767,0.761,0.745,0.725,0.804,0.627,0.377,0.31,0.408,0.805,0.454,0.5,0.456
NCI-H1355,0.36,0.302,0.289,0.346,0.726,0.771,0.773,0.747,0.707,0.272,0.236,0.21,0.251,0.896,0.824,0.728,1.02
H3255,0.543,0.573,0.494,0.628,0.564,0.601,0.576,0.585,0.643,0.523,0.555,0.397,0.447,0.865,0.979,0.793,0.924
NCI-H1993,0.468,0.42,0.534,0.46,1.03,0.94,1.03,1.06,1.08,0.545,0.533,0.665,0.605,0.663,–,0.64,0.633
NCI-H1734,0.527,0.512,0.403,0.563,0.54,0.686,0.72,0.636,0.565,0.42,0.29,0.268,0.293,0.554,0.51,0.358,0.509
HOP-62,0.406,0.303,0.313,0.397,0.47,0.38,0.389,0.564,0.616,0.758,0.574,0.641,0.657,0.896,0.96,0.888,0.981
LOU-NH91,0.737,0.845,0.709,0.755,0.925,0.98,0.88,0.943,0.959,0.65,0.665,0.59,0.563,0.736,0.812,0.667,0.725
ChaGo-K-1,0.827,0.869,0.81,0.823,0.434,0.437,0.425,0.484,0.411,0.402,0.252,0.317,0.291,0.989,0.644,1.01,0.791

# From the supplement of paper PMC10307832
